{
  "source": "patent US4916146A",
  "about": "“Amino acid imide derivatives, usage thereof, and medicinal composition containing the same” (Zeria Pharmaceutical Co., Ltd., priority 1987, dated 1990)",
  "key": {"[1]": {"system": "Fisher 344 male rats", "assay": "Toxicity experiment, oral administration", "format": "in vivo", "conditions": "period of 14 days; for Mortality: 500, 1,000, 1,500 and 2,000 mg/kg orally in propylene glycol", "text": "Groups of Fisher 344 male rats, age 6 weeks, each group consisting of 5 rats were used for the test."}, "[2]": {"system": "ICR male mice", "assay": "Anti-hypoxic activity (survival time under 4% O2 + 96% N2)", "format": "in vivo", "conditions": "30 minutes before mixed gas, control = 100", "experimental": "Groups of ICR male mice, age 4 to 5 weeks, each group consisting of 10 mice and each mouse having been fasted for 24 hours, were used for the test. Mice were placed in a transparent desiccator (diameter: 19 cm, height: 30 cm) made of synthetic resin and having 2 bulbs, one at the upper portion and the other at the lower portion, for replacing the gas therein. A mixed gas (4% O2 +96% N2) was fed from the upper bulb at a rate of 10 l/min to measure the period of time until respiratory arrest took place for each mouse. The time measured was taken as the time of survival.\nEach tested compound suspended in 5% gum arabic solution was intraperitoneally administered 30 minutes before the start of the mixed gas feeding. A group of mice to which only 5% gum arabic solution was intraperitoneally administered was used as a control.\nCompounds, not sufficiently suspended in 5% gum arabic, were dissolved with Tween 80 so that the final concentration of the detergent was 3%, followed by the addition of 5% gum arabic. The anti-hypoxic activity was determined according to the following formula: [formula]"}, "[3]": {"biological_target": "T1, prolyl endopeptidase prepared from canine brains (Canis lupus familiaris, UniProt A0A8I3N6C8)", "T1 construct": "Prolyl endopeptidase was prepared from canine brains; from tissue; host or cells: canine brain", "T1 sequence (A0A8I3N6C8 1-710)": "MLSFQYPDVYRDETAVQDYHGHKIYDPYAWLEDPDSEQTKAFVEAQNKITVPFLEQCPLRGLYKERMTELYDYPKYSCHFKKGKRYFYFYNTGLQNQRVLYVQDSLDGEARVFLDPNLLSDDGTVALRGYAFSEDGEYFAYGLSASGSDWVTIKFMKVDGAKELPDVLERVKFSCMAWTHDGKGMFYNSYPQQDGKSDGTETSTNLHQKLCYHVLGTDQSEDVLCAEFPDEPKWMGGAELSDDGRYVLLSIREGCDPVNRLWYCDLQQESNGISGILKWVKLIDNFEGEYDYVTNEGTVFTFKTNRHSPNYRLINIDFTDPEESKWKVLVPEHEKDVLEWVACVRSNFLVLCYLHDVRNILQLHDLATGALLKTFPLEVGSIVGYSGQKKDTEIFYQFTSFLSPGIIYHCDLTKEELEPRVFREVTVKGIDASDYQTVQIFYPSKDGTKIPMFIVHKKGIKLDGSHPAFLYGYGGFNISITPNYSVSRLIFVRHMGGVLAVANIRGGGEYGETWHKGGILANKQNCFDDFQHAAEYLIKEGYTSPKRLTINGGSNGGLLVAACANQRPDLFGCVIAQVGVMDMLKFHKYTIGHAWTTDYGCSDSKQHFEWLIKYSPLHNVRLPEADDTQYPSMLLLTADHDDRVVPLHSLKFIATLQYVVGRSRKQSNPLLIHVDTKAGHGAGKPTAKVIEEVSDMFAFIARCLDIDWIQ", "assay": "Inhibitory activity against prolyl endopeptidase from brain", "format": "biochemical", "conditions": "substrate carbobenzoxyglycylprolyl paranitroanilide, 37° C., 10 minutes, read-out: Inhibition Potency, IC50", "experimental": "Buffer A: 20 mM Tris-HCl buffer (pH 7.0)\nBuffer B: a solution containing 0.1% gelatin, 1 mM EDTA, and 1 mM mercapto ethanol in buffer solution A\nProlyl endopeptidase was dissolved with the Buffer B at a concentration of 0.4 unit/ml. This solution (50 μl) was added to 940 μl of the Buffer A, and the solution thus obtained was left at 37° C. for 10 minutes (This solution is herein referred to as \"Enzyme solution\"). A mixed solution of 50 μl of the Buffer B and 940 μl of Buffer A was used as a \"Correction solution\".\nA test compound was dissolved with dimathylsulfoxide (10 μl) was added to the Enzyme solution. The mixture was stirred and allowed to stand at 37° C. for 10 minutes. Separately, 10 μl of dimethylsulfoxide was added to the Enzyme solution and was processed in the same manner. The solution thus obtained was served as a \"Control solution\". The same procedure was carried out on the Correction solution.\nOne hundred micoliters of 2.5 mM carbobezoxyglycylprolyl paranitroanilide, which was dissolved with 40% dioxane, was added to each of the above 3 solutions, i.e., the Enzyme solution with the test compound, Control solution, and Correction solution, and the reaction was carried out at 37° C. for 10 minutes.\nEnzyme activities were determined by subtracting the blank value, i.e., the absorbance measured on the Correction solution, from the absorbance of each of the sample solutions and of the Control solution."}, "[4]": {"system": "ICR male mice", "assay": "Toxicity experiment, intraperitoneal administration", "format": "in vivo", "conditions": "300 mg/kg intraperitoneally in 5% gum arabic, period of 7 days", "experimental": "Groups of ICR male mice, age 4 to 5 weeks, each group consisting of 10 mice were used for the test. A dose of 300 mg/kg of each compound prepared in Examples 1 and 2 hereinbelow suspended in 5% gum arabic was intraperitoneally administered to each group of mice."}, "[5]": {"biological_target": "prolyl endopeptidase from Flavobacterium (Elizabethkingia meningoseptica, UniProt P27028)", "sequence (P27028 21-705)": "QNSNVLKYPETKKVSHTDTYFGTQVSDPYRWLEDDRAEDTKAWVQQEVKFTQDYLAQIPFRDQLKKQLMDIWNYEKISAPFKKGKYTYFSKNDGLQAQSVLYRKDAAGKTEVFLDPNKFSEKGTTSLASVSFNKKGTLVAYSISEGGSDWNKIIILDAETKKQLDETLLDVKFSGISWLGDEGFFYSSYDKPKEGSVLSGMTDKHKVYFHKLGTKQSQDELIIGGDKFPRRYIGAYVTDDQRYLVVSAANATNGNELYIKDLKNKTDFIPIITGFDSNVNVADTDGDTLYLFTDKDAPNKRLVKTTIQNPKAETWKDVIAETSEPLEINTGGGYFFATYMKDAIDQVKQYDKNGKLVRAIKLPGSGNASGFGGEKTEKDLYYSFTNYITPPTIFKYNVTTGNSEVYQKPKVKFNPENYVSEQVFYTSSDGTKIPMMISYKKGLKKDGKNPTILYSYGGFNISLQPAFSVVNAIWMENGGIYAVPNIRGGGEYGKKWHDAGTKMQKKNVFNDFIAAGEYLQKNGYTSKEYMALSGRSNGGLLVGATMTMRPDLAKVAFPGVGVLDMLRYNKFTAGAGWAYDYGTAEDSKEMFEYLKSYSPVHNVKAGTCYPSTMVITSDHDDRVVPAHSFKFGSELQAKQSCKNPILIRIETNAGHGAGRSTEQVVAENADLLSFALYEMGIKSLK", "assay": "biochemical", "experimental": "Inhibitory activity of the compound of formula (I) against prolyl endopeptidase from Flavobacterium was measured according to the method of Yoshimoto and Tsuru [Arg.\nProlyl endopeptidase was dissolved with 20 mM Tris-HCl buffer (pH 7.4) at a concentration of 0.4 unit/ml. This solution (100 μl) was added to 890 μl of the same buffer, and the solution thus obtained was left at room temperature for 10 minutes. (This solution is herein referred to as an \"Enzyme solution\"). This buffer (990 μl) was used as a \"Correction solution\".\nTest compound dissolved with dimethylsulfoxide (10 μl) was added to the Enzyme solution. The solution was stirred and allowed to stand at room temperature for 10 minutes. Separately, 10 μl of dimethylsulfoxide was added to Enzyme solution and was processed in the same manner. The solution thus obtained was served as a \"Control solution\". The same procedure was carried out on the Correction solution.\nEnzyme activities were determined by subtracting the blank value, i.e., the absorbance measured on the Correction solution, from the absorbance of each of the sample solutions or of the Control solution."}, "[6]": {"system": "ICR male mice", "assay": "Anti-amnesic activity (cycloheximide-induced amnesia, step-down passive avoidance)", "format": "in vivo", "conditions": "for Amnesic Mice (%): latency shorter than 150 seconds at 24 hours", "experimental": "Compounds of this invention were checked with respect to their abilities to prevent the inhibition of long-term memory fixation by cycloheximide which is an amnesia inducing compound. ICR male mice, age 6 to 7 weeks, were used for the test. The test was carried out using a step-down passive avoidance apparatus.\nOn the first day, a 5-minute training was given to each mouse which was placed on a rubber platform. Every time when the mouse stepped down on the grid floor, a 0.2 mA electric foot shock was applied until it stepped up on the platform. This motion of the mouse was repeated for 5 minutes.\nAdministration of cycloheximide and the compound of this invention was performed immediately after the training. Cycloheximide was dissolved in a saline and subcutaneously administered to the mouse. The compound of this invention, suspended in a sesame oil/Tween 80/5% gum arabic (3/1/96; by volume), was intraperitoneally administered. Aniracetam suspended in 5% gum arabic was orally administered. Twenty-four hours after the training, a retention test was performed, which consisted of placing the mouse on the platform again and measuring the latency of the mouse to step down on the grid floor. The amnesia ratio for each group of mice was determined as the percentage of amnesic mice taken latency shorter than 150 seconds.\n- wherein %A is a percentage of amnesic mice, t denotes a test compound,\nstands for cycloheximide, v stands for vehicle, and s stands for saline"}, "[7]": {"conditions": "read-out: Inhibition Potency, IC50"}, "[8]": {"conditions": "30 mg/kg po + cycloheximide 200 mg/kg sc"}, "[9]": {"conditions": "60 mg/kg po + cycloheximide 200 mg/kg sc"}, "[10]": {"conditions": "1 mg/kg ip + cycloheximide 200 mg/kg sc"}, "[11]": {"conditions": "3 mg/kg ip + cycloheximide 200 mg/kg sc"}},
  "note": "Like-named read-outs stand apart in the source and are kept apart here.",
  "data": [
    {"smiles": "O=C([C@@H]1CSCN1C(=O)CCCc1ccccc1)N1CCCC1", "note": "[Compound of Ex. 3, N-(4-phenylbutanoyl)-L-thioprolylpyrrolidineimide]", "values": [
      {"measurement": "Mortality", "setting": "[1]", "value": "No fatal problem"},
      {"measurement": "Anti-hypoxic Activity (%)", "setting": "[2]; dose 100 mg/kg ip", "value": 169, "unit": "%"},
      {"measurement": "IC50", "setting": "[3]", "value": 0.031, "unit": "µM"}
    ]},
    {"smiles": "O=C([C@@H]1CCCN1C(=O)CCCc1ccccc1)N1CCCC1", "note": "[SUAM 1221, reference compound]", "values": [
      {"measurement": "Rats died out of the 5 rats", "setting": "[1]; 1,500 mg/kg orally", "value": "one"},
      {"measurement": "Rats died out of the 5 rats", "setting": "[1]; 2,000 mg/kg orally", "value": 2}
    ]},
    {"smiles": "O=C([C@@H]1CCCN1C(=O)CCCc1ccccc1)N1CCSC1", "note": "[Compound of Ex. 2, N-(4-phenylbutanoyl)-L-prolylthiazolidineimide]", "values": [
      {"measurement": "Mortality", "setting": "[1]", "value": "No fatal problem"},
      {"measurement": "Mortality", "setting": "[4]", "value": "No fatal problem"},
      {"measurement": "Anti-hypoxic Activity (%)", "setting": "[2]; dose 100 mg/kg ip", "value": 160, "unit": "%"},
      {"measurement": "IC50", "setting": "[3]", "value": 0.041, "unit": "µM"},
      {"measurement": "IC50", "setting": "[5]; [7]", "value": 0.15, "unit": "µM"}
    ]},
    {"smiles": "COc1ccc(C(=O)N2CCCC2=O)cc1", "note": "[Aniracetam, reference compound]", "values": [
      {"measurement": "Anti-hypoxic Activity (%)", "setting": "[2]; dose 100 mg/kg ip", "value": 115, "unit": "%"},
      {"measurement": "Anti-hypoxic Activity (%)", "setting": "[2]; dose 300 mg/kg ip", "value": 159, "unit": "%"},
      {"measurement": "Amnesia Reversal (%)", "setting": "[6]; [8]", "value": 22.8, "unit": "%"},
      {"measurement": "Amnesic Mice (%)", "setting": "[6]; [8]", "value": 42.9, "unit": "%"},
      {"measurement": "Amnesia Reversal (%)", "setting": "[6]; [9]", "value": 7.2, "unit": "%"},
      {"measurement": "Amnesic Mice (%)", "setting": "[6]; [9]", "value": 50.0, "unit": "%"},
      {"measurement": "IC50", "setting": "[5]", "value": "> 1000", "unit": "µM"}
    ]},
    {"smiles": "O=C([C@H]1CCCN1C(=O)CCCc1ccccc1)N1CCSC1", "note": "[Compound of Ex. 4, N-(4-phenylbutanoyl)-D-prolylthiazolidineimide]", "values": [
      {"measurement": "Anti-hypoxic Activity (%)", "setting": "[2]; dose 100 mg/kg ip", "value": 164, "unit": "%"}
    ]},
    {"smiles": "CC(C)(CO)[C@@H](O)C(=O)NCCCC(=O)O", "note": "[Calcium hopantenate, reference compound]", "values": [
      {"measurement": "Anti-hypoxic Activity (%)", "setting": "[2]; dose 250 mg/kg ip", "value": 135, "unit": "%"},
      {"measurement": "IC50", "setting": "[5]; prolyl endopeptidase from Flavobacterium, substrate carbobenzoxyglycylprolyl paranitroanilide, 37° C., 10 minutes, read-out: Inhibition Potency, IC50", "value": "> 1000", "unit": "µM"}
    ]},
    {"smiles": "O=C([C@@H]1CSCN1C(=O)CCCc1ccccc1)N1CCSC1", "note": "[Compound of Ex. 1, N-(4-phenylbutanoyl)-L-thioprolylthiazolidineimide]", "values": [
      {"measurement": "Mortality", "setting": "[1]", "value": "No fatal problem"},
      {"measurement": "Mortality", "setting": "[4]", "value": "No fatal problem"},
      {"measurement": "Anti-hypoxic Activity (%)", "setting": "[2]; dose 100 mg/kg ip", "value": 124, "unit": "%"},
      {"measurement": "IC50", "setting": "[3]", "value": 0.017, "unit": "µM"},
      {"measurement": "Amnesia Reversal (%)", "setting": "[6]; [10]", "value": 28.2, "unit": "%"},
      {"measurement": "Amnesic Mice (%)", "setting": "[6]; [10]", "value": 52.9, "unit": "%"},
      {"measurement": "Amnesia Reversal (%)", "setting": "[6]; [11]", "value": 74.8, "unit": "%"},
      {"measurement": "Amnesic Mice (%)", "setting": "[6]; [11]", "value": 26.7, "unit": "%"},
      {"measurement": "IC50", "setting": "[5]; [7]", "value": 0.087, "unit": "µM"}
    ]},
    {"smiles": "COC1=C(OC)C(=O)C(CCCCCCCCCCO)=C(C)C1=O", "note": "[Idebenone, reference compound]", "values": [
      {"measurement": "Anti-hypoxic Activity (%)", "setting": "[2]; dose 100 mg/kg ip", "value": 140, "unit": "%"}
    ]}
  ]
}
